Results on 4 molecules are retold here after article PMC10550967, “Structure of the ceramide-bound SPOTS complex” (Nature Communications, 2023).

The target in data set [1] is T1, SPOTS complex (monomeric, with Sac1) (Saccharomyces cerevisiae, UniProt P25045+P40970+P53224, P53224:S51A/P53224:S52A/P53224:S53A).
T1 construct: gene LCB1; co-overexpressed in S. cerevisiae (GAL1 promoter); 3xFLAG inserted between codons 9 and 10 of LCB1, kept; GDN-solubilised; monomeric 1:1:1:1:1; Site chains differ by ligand (see pair conditions); The purified sample also holds Sac1-free SPOT monomer and dimer; with Serine palmitoyltransferase-regulating protein TSC3; Phosphoinositide phosphatase SAC1
T1 sequence (P25045 whole entry, one chain of several): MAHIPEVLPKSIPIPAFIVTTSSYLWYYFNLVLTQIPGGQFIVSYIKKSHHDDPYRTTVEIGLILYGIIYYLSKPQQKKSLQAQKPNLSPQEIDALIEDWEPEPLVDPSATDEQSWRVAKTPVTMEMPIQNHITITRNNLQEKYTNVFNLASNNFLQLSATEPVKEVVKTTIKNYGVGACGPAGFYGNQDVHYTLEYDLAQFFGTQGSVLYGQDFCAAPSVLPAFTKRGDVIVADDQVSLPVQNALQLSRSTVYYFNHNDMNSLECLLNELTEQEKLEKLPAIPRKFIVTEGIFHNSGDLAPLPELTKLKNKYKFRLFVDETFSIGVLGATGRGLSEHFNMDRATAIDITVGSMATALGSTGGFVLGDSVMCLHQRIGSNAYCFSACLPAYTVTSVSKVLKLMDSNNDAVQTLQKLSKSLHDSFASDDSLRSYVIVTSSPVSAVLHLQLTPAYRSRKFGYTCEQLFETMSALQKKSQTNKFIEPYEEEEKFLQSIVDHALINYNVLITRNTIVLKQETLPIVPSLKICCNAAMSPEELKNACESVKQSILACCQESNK
T1 sequence (P53224 whole entry S51A/S52A/S53A, one chain of several): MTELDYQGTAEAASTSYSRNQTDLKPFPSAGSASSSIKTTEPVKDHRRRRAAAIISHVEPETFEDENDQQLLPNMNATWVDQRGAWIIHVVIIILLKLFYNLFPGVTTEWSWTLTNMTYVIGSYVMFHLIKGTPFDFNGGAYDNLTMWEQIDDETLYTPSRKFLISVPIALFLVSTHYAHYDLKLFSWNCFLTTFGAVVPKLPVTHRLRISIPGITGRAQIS
T1 sequence (Q3E790 whole entry partner, one chain of several): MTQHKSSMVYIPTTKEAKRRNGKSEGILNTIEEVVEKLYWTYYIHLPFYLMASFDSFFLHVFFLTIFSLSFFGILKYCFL
T1 sequence (P32368 whole entry partner, one chain of several): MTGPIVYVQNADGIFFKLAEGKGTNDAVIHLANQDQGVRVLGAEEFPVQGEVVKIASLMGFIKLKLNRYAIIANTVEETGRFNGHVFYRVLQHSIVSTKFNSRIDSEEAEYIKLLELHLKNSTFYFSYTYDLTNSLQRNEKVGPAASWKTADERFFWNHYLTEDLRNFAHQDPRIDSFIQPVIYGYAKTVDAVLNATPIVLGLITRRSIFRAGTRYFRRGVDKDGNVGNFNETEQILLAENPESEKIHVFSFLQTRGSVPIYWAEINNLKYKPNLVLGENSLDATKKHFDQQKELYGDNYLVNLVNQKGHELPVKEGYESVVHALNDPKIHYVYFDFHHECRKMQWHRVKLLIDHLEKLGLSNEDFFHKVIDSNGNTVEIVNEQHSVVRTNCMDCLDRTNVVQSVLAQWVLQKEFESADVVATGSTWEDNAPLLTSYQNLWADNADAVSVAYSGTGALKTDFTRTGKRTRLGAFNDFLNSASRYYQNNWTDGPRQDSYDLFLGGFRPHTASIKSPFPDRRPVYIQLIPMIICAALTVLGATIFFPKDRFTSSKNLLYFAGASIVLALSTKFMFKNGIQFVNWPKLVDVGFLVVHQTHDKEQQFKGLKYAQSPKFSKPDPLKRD
The data set can be described thus: colorimetric CoA release assay. The following applies: 30 µM PLP, 0.008% GDN, pH 6.8, RT, 1 h, FLAG-purified complex (mixture of SPOT and SPOTS), catalytic site Lcb1/Lcb2. The format is biochemical.

The target of data set [2] is T1, SPOTS complex (monomeric, with Sac1). Kind of data set: cryo-EM structure, […] Å; coupled enzymatic assay of bound sterol. The format is binding. The following applies: site: pocket of Lcb1 TM0a helix and Orm1 TM4, three molecules; co-purified endogenous lipid.
For data set [3], the target named is T2, SPOT complex (monomer) (Saccharomyces cerevisiae, UniProt P25045+P40970+P53224, P53224:S51A/P53224:S52A/P53224:S53A).
T2 construct: gene LCB1; same preparation as P1, cryo-EM class without Sac1; monomeric; 3xFLAG inserted between codons 9 and 10 of LCB1; GDN-solubilised; Site chains differ by ligand (see pair conditions); with Serine palmitoyltransferase-regulating protein TSC3
T2 sequence (P25045 whole entry, one chain of several): as the sequence (P25045 whole entry, one chain of several) above
T2 sequence (P53224 whole entry S51A/S52A/S53A, one chain of several): as the sequence (P53224 whole entry S51A/S52A/S53A, one chain of several) above
T2 sequence (Q3E790 whole entry partner, one chain of several): as the sequence (Q3E790 whole entry partner, one chain of several) above
The data set can be described thus: cryo-EM structure, […] Å. The format is binding. The following applies: site: pocket of Lcb1 TM0a helix and Orm1 TM4, three molecules; co-purified endogenous lipid.

Data set [4] concerns the molecule itself. Kind of data set: cryo-EM structure; single-particle cryo-EM of the FLAG-purified complex in GDN, 10 mg/ml; one dataset gave a C2 symmetric SPOT dimer, a SPOT monomer and a SPOTS monomer with Sac1.

Take `N[C@@H](CO)C(=O)O` [L-serine]: the “colorimetric CoA release assay” value in data set [1] (100 µM palmitoyl-CoA) is “release of CoA-SH from the SPT-catalyzed condensation of palmitoyl-CoA and L-serine”. Regarding `CC(C)[C@@H](C)/C=C/[C@@H](C)[C@H]1CC[C@H]2C3=CC=C4C[C@@H](O)CC[C@]4(C)[C@H]3CC[C@]12C` [ergosterol], the “cryo-EM structure, 3.3 Å; coupled enzymatic assay of bound sterol” value in data set [2] is recorded as “Lcb1-TM0a directly interacts with three molecules of ergosterol”. For the same molecule, the “cryo-EM structure, 3.4 Å” value in data set [3] is “in which three structurally well-resolved ergosterol molecules are positioned”. Take `CCCCCCCCCCCCCCCC(=O)SCCNC(=O)CCNC(=O)[C@H](O)C(C)(C)COP(=O)(O)OP(=O)(O)OC[C@H]1O[C@@H](n2cnc3c(N)ncnc32)[C@H](O)[C@@H]1OP(=O)(O)O` [palmitoyl-CoA]: the “colorimetric CoA release assay” value in data set [1] (15 mM L-serine) is “release of CoA-SH from the SPT-catalyzed condensation of palmitoyl-CoA and L-serine”.

B1: Lcb2 (enzyme, S. cerevisiae)
chain: MSTPANYTRVPLCEPEELPDDIQKENEYGTLDSPGHLYQVKSRHGKPLPEPVVDTPPYYISLLTYLNYLILIILGHVHDFLGMTFQKNKHLDLLEHDGLAPWFSNFESFYVRRIKMRIDDCFSRPTTGVPGRFIRCIDRISHNINEYFTYSGAVYPCMNLSSYNYLGFAQSKGQCTDAALESVDKYSIQSGGPRAQIGTTDLHIKAEKLVARFIGKEDALVFSMGYGTNANLFNAFLDKKCLVISDELNHTSIRTGVRLSGAAVRTFKHGDMVGLEKLIREQIVLGQPKTNRPWKKILICAEGLFSMEGTLCNLPKLVELKKKYKCYLFIDEAHSIGAMGPTGRGVCEIFGVDPKDVDILMGTFTKSFGAAGGYIAADQWIIDRLRLDLTTVSYSESMPAPVLAQTISSLQTISGEICPGQGTERLQRIAFNSRYLRLALQRLGFIVYGVADSPVIPLLLYCPSKMPAFSRMMLQRRIAVVVVAYPATPLIESRVRFCMSASLTKEDIDYLLRHVSEVGDKLNLKSNSGKSSYDGKRQRWDIEEVIRRTPEDCKDDKYFVN
modifications: PLP forms an internal aldimine with K366
notes: Lcb2, catalytic subunit of serine palmitoyltransferase, S. cerevisiae; also called SPT subunit; source: S. cerevisiae, co-expressed with the other SPOTS subunits under the GAL1 promoter
Consider B1, for which, in data set [4], the binding result was “binds”.
